Results on 29 molecules are retold here after patent US20240424111A1, “Degrader Compounds and Uses Thereof” (CALICO LIFE SCIENCES LLC, priority 2021, published 2024).

Test [1] has as its target T1, PTPN2 (Homo sapiens, UniProt P17706).
T1 construct: expressed in transfected cells; host or cells: 293T.109 (HiBiT-PTPN2), derived from 293T WT (ATCC)
T1 sequence (P17706 1-415): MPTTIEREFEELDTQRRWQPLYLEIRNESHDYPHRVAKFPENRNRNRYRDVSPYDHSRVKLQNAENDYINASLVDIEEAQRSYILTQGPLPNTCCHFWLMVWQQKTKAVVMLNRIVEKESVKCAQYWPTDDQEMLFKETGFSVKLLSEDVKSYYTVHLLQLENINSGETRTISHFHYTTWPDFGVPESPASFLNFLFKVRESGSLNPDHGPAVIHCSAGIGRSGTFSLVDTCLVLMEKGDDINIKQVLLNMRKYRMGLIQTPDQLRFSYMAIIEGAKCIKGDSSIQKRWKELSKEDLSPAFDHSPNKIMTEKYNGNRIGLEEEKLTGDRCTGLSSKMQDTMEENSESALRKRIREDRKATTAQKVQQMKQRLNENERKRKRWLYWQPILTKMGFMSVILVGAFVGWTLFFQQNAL
In words: HiBiT PTPN2 degradation in 293T.109 (HiBiT-PTPN2) cells, 24 hours. Type of test: cell-based. The note with it: 293T.109 cells. The text has this:
Dulbecco's modified Eagle medium (DMEM) without phenol red and fetal bovine serum (FBS) were purchased from Gibco (Grand Island, NY, USA). Nano-Glo® HiBiT Lytic Assay System was purchased from Promega (Medison, WI, USA). 293T. 109 (HiBiT-PTPN2) cell line was generated by ectopically expressing PTPN2 with N-terminal HiBiT fusion tag in 293T WT cell line purchased from ATCC (Manassas, VA, USA). Cell culture flasks and 384-well microplates were acquired from VWR (Radnor, PA, USA).
PTPN2 Degradation Analysis
(§1) PTPN2 degradation was determined based on quantification of luminescent signal using Nano-Glo® HiBiT Lytic Assay kit. Test compounds were added to the 384-well plate from a top concentration of 10 μM with 11 points, half log titration in duplicates. 293T. 109 cells were added into 384-well plates at a cell density of 5000 cells per well. The plates were kept at 37° C. with 5% CO2 for 24 hours. The cells treated in the absence of the test compound were the negative control and the cells without Nano-Glo® HiBiT Lytic reagent were the positive control. After 24-hour incubation, Nano-Glo® HiBiT Lytic Assay reagents were added to the cells. Luminescence was acquired on EnVision™ Multilabel Reader (PerkinElmer, Santa Clara, CA, USA).
For orientation: HiBiT is a short tag that completes a luciferase, so light tracks the accessible tagged protein.

For test [2], the target named is T2, PTPN2 (Mus musculus, UniProt Q06180).
T2 construct: HiBiT; host or cells: B16F10.4
T2 sequence (Q06180 1-406): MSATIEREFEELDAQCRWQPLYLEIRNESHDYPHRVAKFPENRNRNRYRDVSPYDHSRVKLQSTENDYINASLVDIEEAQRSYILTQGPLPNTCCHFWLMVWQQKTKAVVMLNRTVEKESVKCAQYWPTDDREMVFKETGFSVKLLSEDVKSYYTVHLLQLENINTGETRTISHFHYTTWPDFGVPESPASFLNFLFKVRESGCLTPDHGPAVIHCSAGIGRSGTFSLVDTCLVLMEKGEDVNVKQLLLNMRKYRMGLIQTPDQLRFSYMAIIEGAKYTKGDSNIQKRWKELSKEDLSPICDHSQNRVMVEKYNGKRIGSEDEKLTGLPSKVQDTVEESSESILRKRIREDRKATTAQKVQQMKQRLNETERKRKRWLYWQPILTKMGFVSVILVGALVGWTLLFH
In words: HiBiT PTPN2 degradation in B16F10.4 cells, 24 hours. Type of test: cell-based. The protocol:
as §1

With `C[C@@H](C(=O)Nc1ccc2c(F)c(N3CC(=O)NS3(=O)=O)c(O)cc2c1)N1CCC(c2ccc3c(c2)n(C)c(=O)n3C2CCC(=O)NC2=O)CC1` (single isomer, unassigned) [Degrader 104], the DC50 on PTPN2 [1] and at PTPN2 [2] was 50 to 150 nM each time.
`Cn1c(=O)n(C2CCC(=O)NC2=O)c2ccc([C@H]3CCN(CC(=O)Nc4ccc5c(F)c(N6CC(=O)NS6(=O)=O)c(O)cc5c4)C3)cc21` (single isomer, unassigned) [Degrader 123]: the DC50 was in the range of 50 to 150 nM on PTPN2 [1] and 150 to 500 nM on PTPN2 [2].
`CCn1c(=O)n(C2CCC(=O)NC2=O)c2ccc([C@H]3CCN(CC(=O)Nc4ccc5c(F)c(N6CC(=O)NS6(=O)=O)c(O)cc5c4)C[C@@H]3F)cc21` (single isomer, unassigned) [Degrader 130]: the half-maximal degradation concentration (DC50) at PTPN2 [1] and on PTPN2 [2] was 150 to 500 nM each time.
On to `Cc1nn(CC(=O)Nc2ccc3c(F)c(N4CC(=O)NS4(=O)=O)c(O)cc3c2)c(C)c1-c1ccc2c(C3CCC(=O)NC3=O)nn(C)c2c1` (stereo not shown) [Degrader 1], for which the DC50 at PTPN2 [1] and on PTPN2 [2] was below 50 nM throughout.
Regarding `Cn1c(=O)n(C2CCC(=O)NC2=O)c2ccc(C3CCN(CC4CC(C(=O)Nc5ccc6c(F)c(N7CC(=O)NS7(=O)=O)c(O)cc6c5)C4)CC3)cc21` (stereo not shown) [Degrader 6], the DC50 is below 50 nM on PTPN2 [1] and 50 to 150 nM at PTPN2 [2].
The matching figures for `Cn1c(=O)n(C2CCC(=O)NC2=O)c2ccc(C3CCN(CCC(C)(C)CCOc4ccc5cc(O)c(N6CC(=O)NS6(=O)=O)c(F)c5c4)CC3)cc21` (stereo not shown) [Degrader 7]: below 50 nM and 150 to 500 nM.
With `Cn1c(=O)n(C2CCC(=O)NC2=O)c2ccc(N3CCC(CCC(=O)Nc4ccc5c(F)c(N6CC(=O)NS6(=O)=O)c(O)cc5c4)CC3)cc21` (stereo not shown) [Degrader 8], the DC50 at PTPN2 [1] and at PTPN2 [2] was 50 to 150 nM in each case.
`O=C1CCC(n2c(=O)n(C3COC3)c3cc(C4CCN(CC(=O)Nc5ccc6c(F)c(N7CC(=O)NS7(=O)=O)c(O)cc6c5)CC4)ccc32)C(=O)N1` (stereo not shown) [Degrader 9]: the DC50 at PTPN2 [1] and at PTPN2 [2] was 150 to 500 nM each time.
For `Cn1c(=O)n(C2CCC(=O)NC2=O)c2ccc(C3CCN(CC(=O)N4CCC(Oc5ccc6cc(O)c(N7CC(=O)NS7(=O)=O)c(F)c6c5)CC4)CC3(F)F)cc21` (stereo not shown) [Degrader 10], the DC50 on PTPN2 [1] lay in the range of 50 to 150 nM; on PTPN2 [2], 150 to 500 nM.
With `CCn1nc(C2CCC(=O)NC2=O)c2ccc(C3CCN(CC(=O)Nc4ccc5c(F)c(N6CC(=O)NS6(=O)=O)c(O)cc5c4)CC3(F)F)cc21` (stereo not shown) [Degrader 11], the figures for the DC50 at PTPN2 [1] and on PTPN2 [2] were 50 to 150 nM and 150 to 500 nM, respectively.
As for `CCn1nc(C2CCC(=O)NC2=O)c2ccc(C3CCN(CC(=O)N4CC(Oc5ccc6cc(O)c(N7CC(=O)NS7(=O)=O)c(F)c6c5)C4)CC3(F)F)cc21` (stereo not shown) [Degrader 12], the DC50 on PTPN2 [1] is below 50 nM; at PTPN2 [2], 50 to 150 nM.
The corresponding values for `CC(C)n1nc(C2CCC(=O)NC2=O)c2ccc(C3CCN(CC(=O)N4CC(Oc5ccc6cc(O)c(N7CC(=O)NS7(=O)=O)c(F)c6c5)C4)CC3(F)F)cc21` (stereo not shown) [Degrader 13] are 50 to 150 nM and 50 to 150 nM.
The corresponding values for `Cn1c(=O)n(C2CCC(=O)NC2=O)c2ccc(C3CCN(CC4CC4C(=O)N4CC(Oc5ccc6cc(O)c(N7CC(=O)NS7(=O)=O)c(F)c6c5)C4)CC3)cc21` (stereo not shown) [Degrader 14] are 50 to 150 nM and 150 to 500 nM.
As for `Cn1c(=O)n(C2CCC(=O)NC2=O)c2ccc([C@@H]3CCN(CC(=O)N4CC(Oc5ccc6cc(O)c(N7CC(=O)NS7(=O)=O)c(F)c6c5)C4)C3)cc21` (stereo partly shown) [Degrader 16], the DC50 at PTPN2 [1] was 150 to 500 nM; at PTPN2 [2], at least 500 nM.
The corresponding values for `Cn1c(=O)n(C2CCC(=O)NC2=O)c2ccc(C3CCN(CC4CC4C(=O)N4CC[C@H](c5ccc6cc(O)c(N7CC(=O)NS7(=O)=O)c(F)c6c5)C4)CC3)cc21` (stereo partly shown) [Degrader 17] are 50 to 150 nM and 150 to 500 nM.
As for `Cn1c(=O)n(C2CCC(=O)NC2=O)c2ccc(C3CCN(CC4CC4C(=O)N4CC[C@@H](c5ccc6cc(O)c(N7CC(=O)NS7(=O)=O)c(F)c6c5)C4)CC3)cc21` (stereo partly shown) [Degrader 18], the DC50 on PTPN2 [1] lay within 50 to 150 nM; at PTPN2 [2], 150 to 500 nM.
As to `Cn1c(=O)n(C2CCC(=O)NC2=O)c2ccc(N3CCC(CC(=O)Nc4ccc5c(F)c(N6CC(=O)NS6(=O)=O)c(O)cc5c4)CC3)cc21` (stereo not shown) [Degrader 19], the DC50 was below 50 nM at PTPN2 [1] and 50 to 150 nM at PTPN2 [2].
As to `Cn1c(=O)n([C@H]2CCC(=O)NC2=O)c2ccc(N3CCC(CC(=O)Nc4ccc5c(F)c(N6CC(=O)NS6(=O)=O)c(O)cc5c4)CC3)cc21` [Degrader 20], the DC50 on PTPN2 [1] and on PTPN2 [2] was 50 to 150 nM each time.
Take `Cn1c(=O)n([C@@H]2CCC(=O)NC2=O)c2ccc(N3CCC(CC(=O)Nc4ccc5c(F)c(N6CC(=O)NS6(=O)=O)c(O)cc5c4)CC3)cc21` [Degrader 21]: the DC50 at PTPN2 [1] and on PTPN2 [2] was 50 to 150 nM throughout.
Turning to `CCn1c(=O)n(C2CCC(=O)NC2=O)c2ccc(N3CCC(CC(=O)Nc4ccc5c(F)c(N6CC(=O)NS6(=O)=O)c(O)cc5c4)CC3)cc21` (stereo not shown) [Degrader 22], the DC50 at PTPN2 [1] and on PTPN2 [2] was 50 to 150 nM each time.
On to `C[C@H]1CN(CC(=O)Nc2ccc3c(F)c(N4CC(=O)NS4(=O)=O)c(O)cc3c2)CCN1c1ccc2c(c1)n(C)c(=O)n2C1CCC(=O)NC1=O` (stereo partly shown) [Degrader 23], for which the DC50 at PTPN2 [1] and on PTPN2 [2] was 150 to 500 nM throughout.
`C[C@@H]1CN(CC(=O)Nc2ccc3c(F)c(N4CC(=O)NS4(=O)=O)c(O)cc3c2)CCN1c1ccc2c(c1)n(C)c(=O)n2C1CCC(=O)NC1=O` (stereo partly shown) [Degrader 24]: the DC50 at PTPN2 [1] and on PTPN2 [2] was 50 to 150 nM in each case.
Turning to `Cn1c(=O)n(C2CCC(=O)NC2=O)c2ccc(-c3ccc(CC(=O)Nc4ccc5c(F)c(N6CC(=O)NS6(=O)=O)c(O)cc5c4)cc3)cc21` (stereo not shown) [Degrader 25], the DC50 at PTPN2 [1] and at PTPN2 [2] was below 50 nM in each case.
For `Cn1c(=O)n([C@@H]2CCC(=O)NC2=O)c2ccc(-c3ccc(CC(=O)Nc4ccc5c(F)c(N6CC(=O)NS6(=O)=O)c(O)cc5c4)cc3)cc21` [Degrader 26], the DC50 on PTPN2 [1] is 50 to 150 nM; on PTPN2 [2], below 50 nM.
For the molecule `Cn1c(=O)n([C@H]2CCC(=O)NC2=O)c2ccc(-c3ccc(CC(=O)Nc4ccc5c(F)c(N6CC(=O)NS6(=O)=O)c(O)cc5c4)cc3)cc21` [Degrader 27], the DC50 is 50 to 150 nM at PTPN2 [1] and below 50 nM at PTPN2 [2].
Turning to `Cc1cc(CC(=O)Nc2ccc3c(F)c(N4CC(=O)NS4(=O)=O)c(O)cc3c2)ccc1-c1ccc2c(c1)n(C)c(=O)n2C1CCC(=O)NC1=O` (stereo not shown) [Degrader 28], the DC50 at PTPN2 [1] is 50 to 150 nM; at PTPN2 [2] it was below 50 nM.
With `Cn1c(=O)n(C2CCC(=O)NC2=O)c2ccc(-c3ccc4c(cnn4CC(=O)Nc4ccc5c(F)c(N6CC(=O)NS6(=O)=O)c(O)cc5c4)c3)cc21` (stereo not shown) [Degrader 29], the DC50 was 50 to 150 nM at PTPN2 [1] and below 50 nM on PTPN2 [2].
Consider `Cn1nc(C2CCC(=O)NC2=O)c2ccc(C3CCN(C4CC(C(=O)Nc5ccc6c(F)c(N7CC(=O)NS7(=O)=O)c(O)cc6c5)C4)CC3)cc21` (stereo not shown) [Degrader 30], for which the DC50 on PTPN2 [1] is below 50 nM; at PTPN2 [2], 150 to 500 nM.
Regarding `Cn1c(=O)n(C2CCC(=O)NC2=O)c2ccc(-c3ccn(CC(=O)Nc4ccc5c(F)c(N6CC(=O)NS6(=O)=O)c(O)cc5c4)c(=O)c3)cc21` (stereo not shown) [Degrader 32], the DC50 on PTPN2 [1] and on PTPN2 [2] was 50 to 150 nM each time.

Broadly, the DC50 is the midpoint of the concentration-degradation curve. A lower DC50 goes with a more potent degrader.
